We go through 35 molecules from ChEMBL document CHEMBL4483862, “Open-source discovery of chemical leads for next-generation chemoprotective antimalarials” (2018).

This test concerns Plasmodium berghei. Kind of test: Luciferase/luciferin-expressing antifolate-resistant parasites were used to infect a culture of HepG2 cells that were pre-incubated with compounds. Infected hepatocytes emit light due to the luciferase reaction. Assay results are presented as the percent inhibition of light emission compared to control. […]. Format: functional. The note with it: sporozoite; for IC90: read-out: LUCIFERASE INFECTION ASSAY - IC90.

Where [1] appears, read: read-out: LUCIFERASE INFECTION ASSAY - IC50.

Each structure is given as a SMILES string. A value given as a limit tells only on which side of the number the result lay.

`Cc1ccc(C2(c3ccccc3)NC(=O)N(CC(=O)c3cccs3)C2=O)cc1C` (stereo not given): the IC90 (as a rule, the concentration at which the effect reaches the 90% level) was determined as 6.65 µM. For the same molecule, the half-inhibitory concentration (IC50) (in general, the concentration that gives 50% inhibition) (FFLUC_HILL_SLOPE 12.5, FFLUC_R_SQUARED 0.056, HEPG2TOX_HILL_SLOPE 0.321, HEPG2TOX_R_SQUARED 0.0152, PBLUC_HILL_SLOPE 3.37, 16.8, PBLUC_R_SQUARED 0.316, 0.669, read-out: LUCIFERASE INFECTION ASSAY - IC50) turned out to be 4.11 µM.

`Cc1onc(-c2ccc(Cl)cc2)c1-c1ccnc(SCC(=O)Nc2ccc(Cl)cc2)n1`: the IC90 was greater than 7 µM. In addition, where the note is “FFLUC_HILL_SLOPE 3.87, FFLUC_R_SQUARED 0.391, HEPG2TOX_HILL_SLOPE 3.01, HEPG2TOX_R_SQUARED 0.647, PBLUC_HILL_SLOPE 15.9, PBLUC_R_SQUARED 0.148, read-out: LUCIFERASE INFECTION ASSAY - IC50”, the half-maximal inhibitory concentration (IC50) was 6.77 µM.

For the molecule `CC1(C)CC(=O)C=C(SCC(=O)Nc2cccc(C(F)(F)F)c2)S1`, the IC90 was greater than 8.79 µM. Also, under setting [1], the IC50 was greater than 8.79 µM.

Regarding `O=C(Nc1sc2ccccc2c(=O)c1-c1ccccc1)C1CCCCC1`, the IC90 is greater than 9.08 µM. Also, under setting [1], the IC50 was greater than 9.08 µM.

Take `CCCCNC(=O)c1c(NC(=O)c2ccc(F)cc2)nc2ccc(C)cn12`: the IC90 was 3.28 µM. The IC50 under setting [1] worked out at 2.67 µM.

Regarding `COc1ccc(Cl)c(Nc2nc(-c3c(-c4ccc(Cl)cc4Cl)noc3C)cs2)c1`, the 90% effect concentration (IC90) was greater than 7.07 µM. Besides, the half-maximal inhibitory concentration (IC50) (HEPG2TOX_HILL_SLOPE 6.31, HEPG2TOX_R_SQUARED 0.301, PBLUC_HILL_SLOPE 9.51, PBLUC_R_SQUARED 0.295, read-out: LUCIFERASE INFECTION ASSAY - IC50) stood at 6.34 µM.

`Cc1c(C(=O)OC(C)C(=O)N2CCN(Cc3ccccc3)CC2)sc2nc3n(c(=O)c12)CCC3` (stereo not given): the IC90 was greater than 10 µM. Moreover, the IC50 (PBLUC_HILL_SLOPE 12.6, PBLUC_R_SQUARED 0.201, read-out: LUCIFERASE INFECTION ASSAY - IC50) was 9 µM.

`CN(CC(=O)Nc1ccc(Cl)c(S(=O)(=O)N2CCCCC2)c1)C1CCc2ccccc21` (stereo not given): the IC90 is greater than 10 µM. Further, the IC50 (PBLUC_HILL_SLOPE 13.6, PBLUC_R_SQUARED 0.21, read-out: LUCIFERASE INFECTION ASSAY - IC50) worked out at 9.96 µM.

`Cn1c(NCc2ccccc2)nc2cnc(Nc3cccc(Oc4ccccc4)c3)cc21`: the IC90 was found to be 3.9 µM. In addition, for the setting “HEPG2TOX_HILL_SLOPE 16.8, HEPG2TOX_R_SQUARED 0.905, PBLUC_HILL_SLOPE 16.2, PBLUC_R_SQUARED 0.526, read-out: LUCIFERASE INFECTION ASSAY - IC50”, the IC50 is 3.4 µM.

As to `O=C(COC(=O)c1ccc2ccccc2c1)c1cc2c3c(c1)CC(=O)N3CCC2`, the IC90 is greater than 10 µM. Besides, the IC50 (FFLUC_HILL_SLOPE 2.44, FFLUC_R_SQUARED 0.438, read-out: LUCIFERASE INFECTION ASSAY - IC50) was greater than 10 µM.

Turning to `O=C(NC1CC1)c1ccc(-c2cnc3cnc(-c4ccsc4)cn23)cc1`, the IC90 was greater than 9.16 µM. In addition, the IC50 (HEPG2TOX_HILL_SLOPE 0.0389, HEPG2TOX_R_SQUARED 0.0745, PBLUC_HILL_SLOPE 3.06, PBLUC_R_SQUARED 0.597, read-out: LUCIFERASE INFECTION ASSAY - IC50) was found to be 7.19 µM.

As to `Cc1ccc(-c2cc(=O)n(-c3ccc(F)cc3)[nH]2)cc1`, the IC90 amounted to 11.6 µM. The IC50 (HEPG2TOX_HILL_SLOPE 8.74, HEPG2TOX_R_SQUARED 0.98, PBLUC_HILL_SLOPE 2.08, PBLUC_R_SQUARED 0.732, read-out: LUCIFERASE INFECTION ASSAY - IC50) was found to be 4.04 µM.

Consider `C=CCn1c(C)cc(C(=O)Cn2c(=O)c(=O)n(Cc3ccccc3)c3ccc(Cl)cc32)c1C`, for which the IC90 is greater than 10 µM. The IC50 under setting [1] was greater than 10 µM.

In the case of `Nc1ccc(NC2=C(Cl)C(=O)c3ccccc3C2=O)cc1`, the IC90 was found to be 5.78 µM. For the same molecule, for the setting “FFLUC_HILL_SLOPE 16.7, FFLUC_R_SQUARED 0.273, HEPG2TOX_HILL_SLOPE 2.85, HEPG2TOX_R_SQUARED 0.992, PBLUC_HILL_SLOPE 8.6, PBLUC_R_SQUARED 0.505, read-out: LUCIFERASE INFECTION ASSAY - IC50”, the IC50 amounted to 4.48 µM.

Take `CCCCn1c(N)c(N(CC(C)C)C(=O)c2cc(Br)c(Br)s2)c(=O)[nH]c1=O`: the IC90 was 9.14 µM. Moreover, under setting [1], the IC50 is 8.31 µM.

For `COc1cccc(-c2nc(C(=O)Nc3ccc4nc(C(C)(C)C)[nH]c4c3)cs2)c1OC`, the IC90 came out at 9.22 µM. Under “HEPG2TOX_HILL_SLOPE 10.6, HEPG2TOX_R_SQUARED 0.787, PBLUC_HILL_SLOPE 3.59, PBLUC_R_SQUARED 0.651, read-out: LUCIFERASE INFECTION ASSAY - IC50”, the IC50 was found to be 4.99 µM.

Turning to `Cc1nc(CSc2nc3c(c(-c4ccccc4)c2C#N)C(=O)CC(C)(C)C3)cs1`, the IC90 was greater than 10 µM. Moreover, the IC50 (HEPG2TOX_HILL_SLOPE 0.218, HEPG2TOX_R_SQUARED 0.218, PBLUC_HILL_SLOPE 7.94, PBLUC_R_SQUARED 0.255, read-out: LUCIFERASE INFECTION ASSAY - IC50) is 9.59 µM.

For `Cc1cc(C(=O)CN2C(=O)C(=O)N(Cc3ccccc3)C2=O)c(C)n1-c1ccc2c(c1)OCO2`, the IC90 is greater than 10 µM. The half-maximal inhibitory concentration (IC50) (HEPG2TOX_HILL_SLOPE 8.65, HEPG2TOX_R_SQUARED 0.666, PBLUC_HILL_SLOPE 3.13, PBLUC_R_SQUARED 0.534, read-out: LUCIFERASE INFECTION ASSAY - IC50) was determined as 6.04 µM.

On to `Cc1ccc(-c2cc(=O)n(-c3nc4ccccc4[nH]3)[nH]2)cc1`, for which the IC90 is greater than 11.4 µM. Also, under setting [1], the half-maximal inhibitory concentration (IC50) is greater than 11.4 µM.

Take `FC(F)(F)c1cccc(Nc2nccc3nc(-c4ccccc4Cl)[nH]c23)c1`: the IC90 is greater than 10 µM. Moreover, the IC50 (FFLUC_HILL_SLOPE 7.35, FFLUC_R_SQUARED 0.132, HEPG2TOX_HILL_SLOPE 0.352, HEPG2TOX_R_SQUARED 0.695, PBLUC_HILL_SLOPE 1.25, PBLUC_R_SQUARED 0.396, read-out: LUCIFERASE INFECTION ASSAY - IC50) amounted to 3.07 µM.

For the molecule `COc1ccc(-c2cnc3sc(NCCc4ccc(S(N)(=O)=O)cc4)nn23)cc1OC`, the IC90 is 6.81 µM. The half-maximal inhibitory concentration (IC50) (PBLUC_HILL_SLOPE 16.2, PBLUC_R_SQUARED 0.321, read-out: LUCIFERASE INFECTION ASSAY - IC50) is 5.94 µM.

`CC(C)c1nnc(SCC(=O)Nc2ccc([N+](=O)[O-])cc2)[nH]1`: the IC90 is greater than 10 µM. Besides, the IC50 under setting [1] was greater than 10 µM.

On to `CC1C/C(=C/c2ccc(Cl)cc2)C2=NN(C(=O)c3ccc4ncccc4c3)C(c3ccc(Cl)cc3)C2C1` (stereo not given), for which the IC90 is 6.04 µM. Besides, the IC50 (FFLUC_HILL_SLOPE 1.77, FFLUC_R_SQUARED 0.609, HEPG2TOX_HILL_SLOPE 4.89, HEPG2TOX_R_SQUARED 0.557, PBLUC_HILL_SLOPE 71.4, PBLUC_R_SQUARED 0.509, read-out: LUCIFERASE INFECTION ASSAY - IC50) was 5.86 µM.

In the case of `O=C(Nc1nc(-c2ccc[nH]2)cs1)c1cccc(Br)c1`, the IC90 was greater than 10 µM. For the same molecule, the IC50 (HEPG2TOX_HILL_SLOPE 0.199, HEPG2TOX_R_SQUARED 0.479, read-out: LUCIFERASE INFECTION ASSAY - IC50) was greater than 10 µM.

Turning to `O=C(Nc1nc2ccccn2c1C(=O)NC1CCCC1)c1ccccc1F`, the IC90 turned out to be 4.76 µM. Further, where the note is “HEPG2TOX_HILL_SLOPE 0.364, HEPG2TOX_R_SQUARED 0.251, PBLUC_HILL_SLOPE 7.71, PBLUC_R_SQUARED 0.78, read-out: LUCIFERASE INFECTION ASSAY - IC50”, the IC50 was determined as 3.58 µM.

With `Oc1cc2[nH]c3ccccc3c2cc1CN1CCN(Cc2ccccc2)CC1`, the IC90 was greater than 10 µM. For the same molecule, the IC50 (PBLUC_HILL_SLOPE 3.66, PBLUC_R_SQUARED 0.154, read-out: LUCIFERASE INFECTION ASSAY - IC50) stood at 6.03 µM.

In the case of `O=C(Nc1cccc(NC(=O)c2ccccc2Nc2ccccc2)c1)c1ccco1`, the 90% effect concentration (IC90) is greater than 10 µM. Also, the IC50 (PBLUC_HILL_SLOPE 2.3, PBLUC_R_SQUARED 0.121, read-out: LUCIFERASE INFECTION ASSAY - IC50) is 5.43 µM.

For `CCCCOc1ccc(Nc2nc(C(N)COCc3ccccc3)cs2)nn1` (stereo not given), the IC90 was greater than 8.26 µM. Under setting [1], the IC50 is greater than 8.26 µM.

Regarding `COc1ccccc1C(=O)Nc1c(C#N)cnn1-c1nc(C)cc(C)n1`, the IC90 turned out to be 7.94 µM. Also, for the setting “PBLUC_HILL_SLOPE 2.98, PBLUC_R_SQUARED 0.592, read-out: LUCIFERASE INFECTION ASSAY - IC50”, the IC50 is 3.8 µM.

Take `Nc1nc2ccccc2n1Cc1ccc(Cl)cc1`: the IC90 came to 5.46 µM. The IC50 (HEPG2TOX_HILL_SLOPE 1, HEPG2TOX_R_SQUARED 0.963, PBLUC_HILL_SLOPE 11.6, PBLUC_R_SQUARED 0.65, read-out: LUCIFERASE INFECTION ASSAY - IC50) was found to be 4.52 µM.

As to `CS(=O)(=O)NC1CCN(c2nc(-c3ccccn3)nc3sc(-c4ccccc4)cc23)CC1`, the IC90 was found to be 3.42 µM. In addition, where the note is “PBLUC_HILL_SLOPE 90.2, PBLUC_R_SQUARED 0.429, read-out: LUCIFERASE INFECTION ASSAY - IC50”, the IC50 is 3.34 µM.

Consider `O=C(CCN1C(=O)c2ccccc2C1=O)OCc1cc(=O)oc2cc(O)ccc12`, for which the IC90 is greater than 10 µM. Also, the IC50 under setting [1] is greater than 10 µM.

For the molecule `COc1ccc(OC)c(S(=O)(=O)N2[C@@H]3CC[C@@H](C3)[C@H]2c2nc3cccc(OCc4ccc(F)cc4)c3[nH]2)c1`, the IC90 was greater than 10 µM. Besides, under setting [1], the IC50 is greater than 10 µM.

Consider `CCCCCC1C/C(=C\c2ccc(C(F)(F)F)cc2)C(=O)/C(=C/c2ccc(C(F)(F)F)cc2)C1` (stereo not given), for which the IC90 was greater than 6.87 µM. The IC50 (FFLUC_HILL_SLOPE 3.17, FFLUC_R_SQUARED 0.803, HEPG2TOX_HILL_SLOPE 11.8, HEPG2TOX_R_SQUARED 0.221, PBLUC_HILL_SLOPE 15.7, PBLUC_R_SQUARED 0.195, read-out: LUCIFERASE INFECTION ASSAY - IC50) came to 6.26 µM.

On to `CC(=O)Oc1ccccc1C(=O)NCc1ccc(C)cc1`, for which the concentration for an effect of 90% (IC90) was greater than 11.6 µM. The IC50 under setting [1] was greater than 11.6 µM.
